Reference: patent publication US20190185439A1, “RADIOFLUORINATED CARBOXIMIDAMIDES AS IDO TARGETING PET TRACER FOR CANCER IMAGING” (H. LEE MOFFITT CANCER CENTER & RESEARCH INSTITUTE, INC., priority 2016, published 2019)

Legend:
[1] = biological target: T1, IDO in IFN-γ induced HeLa cells (Homo sapiens, UniProt P14902); test: IDO Hela cells assay (kynurenine formation); format: cell-based; settings: for IFN-γ induced IDO activity in HeLa cell lines inhibited by IDO inhibitors: FIG. 2
T1 construct: native IDO in HeLa cells; endogenous in cells; host or cells: HeLa cells stimulated with human IFN-γ
T1 sequence (P14902 whole entry): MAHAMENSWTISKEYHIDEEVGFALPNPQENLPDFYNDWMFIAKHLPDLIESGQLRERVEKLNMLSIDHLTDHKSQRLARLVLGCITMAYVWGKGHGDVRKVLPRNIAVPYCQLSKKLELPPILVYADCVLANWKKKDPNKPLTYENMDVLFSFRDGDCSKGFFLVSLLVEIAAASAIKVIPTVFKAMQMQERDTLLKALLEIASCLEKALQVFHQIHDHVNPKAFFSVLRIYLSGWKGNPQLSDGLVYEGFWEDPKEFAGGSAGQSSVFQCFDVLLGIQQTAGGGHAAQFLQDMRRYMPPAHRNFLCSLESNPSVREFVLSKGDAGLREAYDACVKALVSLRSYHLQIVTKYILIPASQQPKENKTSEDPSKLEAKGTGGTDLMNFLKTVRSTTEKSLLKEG
Procedure: Hela cells assay was carried out according to the reference (Takikawa, O., et al. (1988). “Mechanism of interferon-gamma action. Characterization of indoleamine 2,3-dioxygenase in cultured human cells induced by interferon-gamma and evaluation of the enzyme-mediated tryptophan degradation in its anticellular activity.” J Biol Chem 263(4):2041-2048; Yue, E. W., et al. (2009). “Discovery of potent competitive inhibitors of indoleamine 2,3-dioxygenase with in vivo pharmacodynamic activity and efficacy in a mouse melanoma model.” J Med Chem 52(23): 7364-7367) with minor modification. HeLa cells were routinely maintained in Earle's Minimum Essential Medium (EMEM) (ATCC 30-2003) and 10% fetal bovine serum. Cells were kept at 37° C. in a humidified incubator supplied with 5% CO2. The assay was performed as follows: HeLa cells were seeded in a 96 well culture plate at a density of 5×10^3 per well in 100 μL culture media. After grown overnight (16 h), human IFN-γ (50 ng/mL final concentration) and serial dilutions of compounds in 100 μL culture medium per well were added into cells. After an additional 48 hours of incubation, 140 μL of the supernatant per well was transferred to a new 96 well plate. Ten microliters of 6.1 N trichloroacetic acid were mixed into each well and incubated at 50° C. for 30 min to hydrolyze N-formylkynurenine produced by IDO to kynurenine. The reaction mixture was then centrifuged for 10 min at 2500 rpm to remove sediments. One hundred microliters of the supernatant per well were transferred to another 96 well plate and mixed with 100 μL of 2% (w/v) p-dimethylaminobenzaldehyde in acetic acid. The yellow color derived from kynurenine was measured at 492 nm using a SPECTRAmax 250 microplate reader. L-Kynurenine, used as the standard, was prepared in a series of concentrations (200, 100, 50, […], 12.5, 6.3, 3.2, 1.6 μM) in 100 μL HeLa cell culture media and analyzed in the same procedure. The percent inhibition at individual concentrations was determined and the average values of duplicates were obtained. The data was processed using nonlinear regression to generate IC50 values (Prism Graphpad).

Human IDO = biological target: T2, Human IDO (Homo sapiens, UniProt P14902); test: IDO enzyme assay; format: biochemical; settings: enzyme activity remaining at different inhibitor concentrations
T2 construct: purchased enzolifesciences ALX-201-333-C050
T2 sequence (P14902 whole entry): as above
Procedure: The assays were performed at room temperature as described as literature reported with minor revision. […] In each well of 96 well-plate, 10 μL of Human IDO (0.05 mg/mL in KHPO4, 50 mM, PH 6.5) was added into 39 μL buffers (KHPO4, 50 mM, PH 6.5) and 1 μL inhibitor buffer in DMSO (2000, 600, 200, 60, 20, 6, 2, 0.6, 0.2 μM). Then, 50 μL the substrate buffer (4 mM L-tryptophan, 40 mM ascorbate, 20 μM methylene blue, 0.2 mg/mL catalase) was mixed into each well and incubated at 37° C. for 2 hours. Then, 10 μL of 6.1N trichloroacetic acid was mixed into each well and incubated at 52° C. for 30 min to hydrolyze N-formylkynurenine produced by IDO to kynurenine. The reaction mixture was incubated with 100 μL of 0.02 g/mL p-(dimethylamino)benzaldehyde in acetic acid at room temperature for 10 minutes. […] L-Kynurenine used as the standard, was prepared in a series of concentrations (1000, 500, 200, 100, 50, 20, 10 μM). The percent inhibition at individual concentrations was determined and the average values of duplicates were obtained. The data was processed using nonlinear regression to generate IC50 values (Prism Graphpad).

[2] = in vivo; cited from earlier work
[3] = test system: IFN-γ stimulated HeLa cells; test: Hela cell uptake of radioligands; format: cell-based, human
Procedure: HeLa cells were seeded in a 24 well culture plate at a density of 2×10^4 per well in 400 μL culture media w/FBS. After grown overnight (16 h), human IFN-γ (25 ng/well, 50 ng/mL final concentration) in 100 μL DMEM w/FBS were added into cells. The cells were rinsed with phosphate-buffered saline (PBS), and 500 μL of Earle's Minimum Essential Medium (EMEM) (ATCC 30-2003) and 10% fetal bovine serum was added to the culture wells. […] At each given time point, the cell supernatants were discard and wash the cells with PBS (0.5 mL) 3 times, the cells were subsequently lysed with 150 μL of trypsin-EDTA in each well and incubated for 5 min at 37° C., then collect the cell digestion solution and add another 150 μL of PBS into each well to collect the cells. All measurements were performed with a γ-counter (Wizard; PerkinElmer).
HeLa, PANCO2,HCT116 and 4T1 cells were selected and those cells were then cultured in the absence or presence of IFN-γ as described followed by Western Blotting to confirm IDO expression.

Hela tumor xenografts = test: MicroPET imaging of Hela tumor xenografts; format: in vivo, mice; settings: for tracer accumulation in tumor: PET
Procedure: Female athymic C57BL/6 nude mice (4-6 weeks old) were ordered from Charles River Laboratories (Stone Ridge, N.Y., U.S.A.) and housed in a temperature and humidity controlled room. After 7 to 14 days of acclimatization, a total of 5×10^6 Hela cells were inoculated subcutaneously in 200 μL serum-free medium into the right flank of hind leg. Once tumors reach an appropriate size (3-4 mm in diameter) the mice were randomized into 5 groups (4/group). Then the mice in every group were randomized into two subgroups (rHu IFN-γ treatment or no rHu IFN-γ treatment). All the rHu IFN-γ treatment mice were injected i.p. of 1.5×10^5 U rHu IFN-γ/mouse/day. 24 h later, group one of mice were anesthetized by gas inhalation (2% vol/vol isoflurane in oxygen), then mice were euthanized and tumor tissues were dissected for further IDO western blotting and IHC in vitro. The same operation can be repeated at 48 h, 72 h, 96 h and 120 h points.
In order to evaluate the in vivo imaging performance of [^18F]IDO49 to IDO tumors, microPET imaging was performed on nude mice bearing Hela tumor xenografts both rHu IFN-γ treatment and none rHu IFN-γ treatment using the Inveon small-animal PET/CT scanner (Siemens). Anesthesia was induced with 4-5% isoflurane and maintained with 1-3% isofluorane delivered with a mixed air/oxygen through a closed nose cone throughout the PET imaging session. Mice bearing Hela tumor xenografts with rHu IFN-γ treatment were injected with 3.70-7.40 MBq (100-200 μCi) of [^18F]IDO49 in 200 μL of saline, and the baseline control mice with none rHu IFN-γ treatment was injected with the same radiotracer. PET data were collected for 90 min following radioligand administration and reconstructed into 38 dynamic frames of increasing length (6×10, 6×20, 4×30, 9×60, 2×180, 8×300, and 3×600 s). For a comparative study, [^11C]AMT PET imaging scan was also performed on Hela tumor mice at 60 min after intravenous injection of [^11C]AMT PET (3.7 MBq). The images were reconstructed and the regions of interest (ROIs) were drawn over the tumor and muscle, PET images were converted to percent injected dose per gram (%ID/g of tissue) for evaluation of tumor specificity. Image analysis was performed using the Inevon Research Workplace software.

[4] = Lipophilicity determination (shake-flask, n-octanol/PBS pH 7.4); format: physicochemical; settings: n-octanol/buffer pH 7.4, shake-flask
Procedure: [^18F]IDO49 (2-30 kBq in 30 μL of water) was added to a two-layer system of n-octanol (500 μL) and 0.1M phosphate buffered saline (PBS) pH 7.4 (500 μL) in an eppendorf vial. The vessel was vortexed for 3 min and then centrifuged at 10000 rpm for 2 min. An aliquot of each layer (100 μL) was assessed for radioactivity in a wiper counter. The partition coefficient (logD7.4) was calculated as the decimal logarithm of the ratio between the counted radioactivity in the n-octanol layer and the counted radioactivity in the aqueous layer. logD7.4=(Count of n-octanol sample−Count of background)/(Count of PBS sample−Count of background). CLogP (calculated LogP) values were determined using CHEMBIODRAW ULTRA 12.0 software (Cambridge soft. Perkin-Elmer, Waltham, Mass., USA).
LogD (n-octanol/buffer pH 7.4 partition coefficient) of [^18F]IDO49 was measured using the shake-flask method and the calculated LogP (cLogP, n-octanol/water partition coefficient) was determined using CHEMBIODRAW software.

[5] = biological target: T3, IDO in IFN-γ stimulated HeLa cells (Homo sapiens, UniProt P14902); test: Competitive cell-binding assay; format: cell-based; settings: blocking with INCB024360 and NLG919, FIG. 8
T3 construct: native IDO in HeLa cells; endogenous in cells; host or cells: HeLa cells stimulated with human IFN-γ
T3 sequence (P14902 whole entry): as above
Procedure: All measurements were performed with a γ-counter (Wizard; PerkinElmer). The specificities of radioligands were determined as percentage.

[6] = IFN-γ treatment Hela tumor mice

Nc1nonc1C(=NO)Nc1ccc(F)c(Cl)c1 [IDO5L, 4-amino-N-(3-chloro-4-fluorophenyl)-N′-hydroxy-1,2,5-oxadiazole-3-carboximidamide, reference compound]
potency in HeLa cell-based assays compared with enzyme assays [1]: slightly more potent
IFN-γ induced IDO activity in HeLa cell lines inhibited by IDO inhibitors [1]: inhibited
affinity of human IDO for compound (Human IDO): higher affinity

ON=C(Nc1ccc(F)c(Cl)c1)c1nonc1NCCF [IDO49]
potency in HeLa cell-based assays compared with enzyme assays [1]: slightly more potent
IFN-γ induced IDO activity in HeLa cell lines inhibited by IDO inhibitors [1]: inhibited
affinity of human IDO for compound (Human IDO): higher affinity

NS(=O)(=O)NCCNc1nonc1C(=NO)Nc1ccc(F)c(Br)c1 [INCB024360]
clearance t1/2 [2]: < 30 min

Cn1cc(C[C@H](N)C(=O)O)c2ccccc21 [L-1-MT]
inhibition of IDO activity (cell uptake of [18F]IDO5L) ([3]; Hela cells, 120 mins, FIG. 7B): strong inhibition

C[C@](N)(Cc1c[nH]c2ccccc12)C(=O)O [[^11C]AMT, α-[^11C] methyl-L-tryptophan, reference compound]
tracer accumulation in tumor (Hela tumor xenografts; [6]): significant tracer accumulation

Nc1nonc1C(=NO)Nc1ccc([18F])c(Cl)c1 [[^18F]IDO5L, [^18F] 4-amino-N-(3-chloro-4-fluorophenyl)-N′-hydroxy-1,2,5-oxadiazole-3-carboximidamide, reference compound]
uptake in IFN-γ stimulated HeLa cells compared with other cell lines ([3]; all time points, PANCO2, HCT116, 4T1 as comparison): remarkably greater
logD7.4 [4]: 2.13±0.11

ON=C(Nc1ccc(F)c(Cl)c1)c1nonc1NCC[18F] [[^18F]IDO49]
retention in IDO expression Hela cell line ([3]; IFN-γ stimulation, different time points): retained at favorable levels
radioactive uptake in the kidney (Hela tumor xenografts; 60 min dynamic scan): high
tumor to muscle (T/M) relative uptake ratio, peak (Hela tumor xenografts; 60 min post-injection, IFN-γ treatment Hela tumor mice): 2.29±0.05
tracer accumulation in tumor (Hela tumor xenografts; [6]): selectively accumulated
average SUV of the tumor, IFN-γ treatment vs none treatment (Hela tumor xenografts; summed images of dynamic microPET scans): higher than none treatment
logD7.4 [4]: 1.37±0.02
specific binding to IDO in vitro [5]: high specific binding
